Values quoted from earlier work as cited in patent US8263645B2, “Disodium cromoglycate compositions and methods for administering same” (PARI Pharma GmbH, priority 2006, dated 2012).
Where two headings read alike, the source gives them in different places.

Columns and labels:
[1] = tested on: rat mast cells
[2] = tested on: intermediate conductance chloride channels; details: channels activated following immunological stimulation
[3] = timed urine collections

lung deposition ([3]; 20 mg DSCG via Acron nebulizer (MMD=4.5 μm)): 1.5%
lung deposition ([3]; 20 mg DSCG via pMDI): 0.3%
Compound: O=C([O-])c1cc(=O)c2c(OCC(O)COc3cccc4oc(C(=O)[O-])cc(=O)c34)cccc2o1.[Na+].[Na+] [DSCG, disodium cromoglycate]
histamine release ([1]; following antigen challenge): inhibition of histamine release
influx of calcium ions ([1]; rat mast cells): inhibited the influx of calcium ions
chloride channel block [2]: block intermediate conductance chloride channels
